According to ChEMBL document CHEMBL1144449, “Design, synthesis, and evaluation of orally active 4-(2,4-difluoro-5-(methoxycarbamoyl)phenylamino)pyrrolo[2,1-f][1,2,4]triazines as dual vascular endothelial growth factor receptor-2 and fibroblast growth factor receptor-1 inhibitors” (J Med Chem, 2005):

Assays:
[1] = biological target: Fibroblast growth factor receptor (Homo sapiens, UniProt P22607+P11362+P22455+P21802); assay: Inhibition of FGF-stimulated human umbilical vein endothelial cell proliferation; format: functional, cell-based
[2] = biological target: Vascular endothelial growth factor receptor (Homo sapiens, UniProt P17948+P35916+P35968); assay: Inhibition of VEGF-stimulated human umbilical vein endothelial cell proliferation; format: functional, cell-based
[3] = biological target: Vascular endothelial growth factor receptor 2 (Homo sapiens, UniProt P35968); assay: Inhibition of human vascular endothelial growth factor receptor 2 kinase activity
Vascular endothelial growth factor receptor 2, sequence (P35968 whole entry): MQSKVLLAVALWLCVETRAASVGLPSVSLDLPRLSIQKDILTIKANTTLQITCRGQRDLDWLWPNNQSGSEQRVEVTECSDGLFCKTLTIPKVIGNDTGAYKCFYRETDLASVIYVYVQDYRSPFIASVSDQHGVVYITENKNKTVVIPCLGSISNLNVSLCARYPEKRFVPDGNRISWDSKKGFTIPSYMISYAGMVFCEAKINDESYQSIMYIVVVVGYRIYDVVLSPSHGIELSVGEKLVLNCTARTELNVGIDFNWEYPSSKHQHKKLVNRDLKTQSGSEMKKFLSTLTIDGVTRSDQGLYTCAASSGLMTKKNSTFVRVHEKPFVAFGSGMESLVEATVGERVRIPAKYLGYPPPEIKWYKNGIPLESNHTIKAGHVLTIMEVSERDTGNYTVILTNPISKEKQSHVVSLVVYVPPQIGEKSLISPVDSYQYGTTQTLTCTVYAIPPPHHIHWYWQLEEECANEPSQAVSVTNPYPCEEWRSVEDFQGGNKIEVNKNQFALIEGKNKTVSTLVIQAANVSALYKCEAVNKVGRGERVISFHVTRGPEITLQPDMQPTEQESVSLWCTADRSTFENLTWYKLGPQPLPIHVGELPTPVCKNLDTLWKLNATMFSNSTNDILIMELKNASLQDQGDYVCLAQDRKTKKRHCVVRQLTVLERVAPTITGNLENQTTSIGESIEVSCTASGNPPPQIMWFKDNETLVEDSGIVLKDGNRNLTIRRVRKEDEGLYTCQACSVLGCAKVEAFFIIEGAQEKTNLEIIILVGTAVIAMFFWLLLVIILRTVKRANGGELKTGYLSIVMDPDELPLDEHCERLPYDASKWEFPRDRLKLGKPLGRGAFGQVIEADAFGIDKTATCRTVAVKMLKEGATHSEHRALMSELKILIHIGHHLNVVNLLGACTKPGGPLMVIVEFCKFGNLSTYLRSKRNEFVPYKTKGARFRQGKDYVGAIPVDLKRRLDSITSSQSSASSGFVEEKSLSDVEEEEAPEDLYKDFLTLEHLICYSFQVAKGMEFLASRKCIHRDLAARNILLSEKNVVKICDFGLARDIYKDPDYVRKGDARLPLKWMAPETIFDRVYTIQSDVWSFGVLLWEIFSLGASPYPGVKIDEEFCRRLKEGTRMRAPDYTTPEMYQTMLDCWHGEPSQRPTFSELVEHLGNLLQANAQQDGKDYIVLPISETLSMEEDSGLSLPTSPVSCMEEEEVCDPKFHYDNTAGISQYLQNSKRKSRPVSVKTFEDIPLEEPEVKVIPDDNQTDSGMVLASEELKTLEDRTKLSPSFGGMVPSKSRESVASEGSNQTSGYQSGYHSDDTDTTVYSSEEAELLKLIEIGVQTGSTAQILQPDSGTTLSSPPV

[4] = biological target: Fibroblast growth factor receptor 1 (Homo sapiens, UniProt P11362); assay: Inhibition of human fibroblast growth factor receptor 1
Fibroblast growth factor receptor 1, sequence (P11362 whole entry): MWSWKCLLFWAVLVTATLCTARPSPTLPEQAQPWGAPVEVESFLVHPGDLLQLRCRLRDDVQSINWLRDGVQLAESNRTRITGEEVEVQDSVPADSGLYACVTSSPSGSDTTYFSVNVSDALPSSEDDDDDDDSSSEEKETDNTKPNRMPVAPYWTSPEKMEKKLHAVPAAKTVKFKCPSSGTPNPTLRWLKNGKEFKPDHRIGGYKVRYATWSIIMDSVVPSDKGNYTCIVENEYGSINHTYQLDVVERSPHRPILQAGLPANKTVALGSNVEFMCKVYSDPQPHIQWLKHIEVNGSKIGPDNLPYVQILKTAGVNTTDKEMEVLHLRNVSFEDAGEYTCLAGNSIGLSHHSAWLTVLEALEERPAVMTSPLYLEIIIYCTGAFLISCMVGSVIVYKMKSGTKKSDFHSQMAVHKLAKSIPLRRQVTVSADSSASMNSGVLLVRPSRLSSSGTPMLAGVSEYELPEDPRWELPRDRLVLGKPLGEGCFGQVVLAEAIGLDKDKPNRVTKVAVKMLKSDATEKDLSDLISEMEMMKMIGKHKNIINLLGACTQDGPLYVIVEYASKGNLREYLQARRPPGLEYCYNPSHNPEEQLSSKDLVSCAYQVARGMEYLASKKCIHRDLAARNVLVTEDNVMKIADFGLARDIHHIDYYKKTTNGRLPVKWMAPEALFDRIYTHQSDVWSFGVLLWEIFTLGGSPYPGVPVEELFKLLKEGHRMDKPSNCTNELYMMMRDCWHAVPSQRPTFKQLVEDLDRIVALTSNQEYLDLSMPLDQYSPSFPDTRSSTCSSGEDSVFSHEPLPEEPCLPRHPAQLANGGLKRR

[5] = Plasma level after 1 hour of oral administration of 50 mg/kg compound in mouse; format: ADME, organism-based; design: dose 50 mg/kg, route oral; details: read-out: Plasma level
[6] = biological target: Cyclin-dependent kinase 2 (Homo sapiens, UniProt P24941); assay: Inhibition of human cyclin-dependent kinase 2
[7] = Plasma level after 4 hours of oral administration of 50 mg/kg compound in mouse; format: ADME, organism-based; design: dose 50 mg/kg, route oral; details: read-out: Plasma level
[8] = biological target: Protein kinase C alpha type (Homo sapiens, UniProt P17252); assay: Inhibition of human protein kinase C alpha
[9] = biological target: Platelet-derived growth factor receptor beta (Homo sapiens, UniProt P09619); assay: Inhibition of human platelet-derived growth factor receptor beta
Platelet-derived growth factor receptor beta, sequence (P09619 whole entry): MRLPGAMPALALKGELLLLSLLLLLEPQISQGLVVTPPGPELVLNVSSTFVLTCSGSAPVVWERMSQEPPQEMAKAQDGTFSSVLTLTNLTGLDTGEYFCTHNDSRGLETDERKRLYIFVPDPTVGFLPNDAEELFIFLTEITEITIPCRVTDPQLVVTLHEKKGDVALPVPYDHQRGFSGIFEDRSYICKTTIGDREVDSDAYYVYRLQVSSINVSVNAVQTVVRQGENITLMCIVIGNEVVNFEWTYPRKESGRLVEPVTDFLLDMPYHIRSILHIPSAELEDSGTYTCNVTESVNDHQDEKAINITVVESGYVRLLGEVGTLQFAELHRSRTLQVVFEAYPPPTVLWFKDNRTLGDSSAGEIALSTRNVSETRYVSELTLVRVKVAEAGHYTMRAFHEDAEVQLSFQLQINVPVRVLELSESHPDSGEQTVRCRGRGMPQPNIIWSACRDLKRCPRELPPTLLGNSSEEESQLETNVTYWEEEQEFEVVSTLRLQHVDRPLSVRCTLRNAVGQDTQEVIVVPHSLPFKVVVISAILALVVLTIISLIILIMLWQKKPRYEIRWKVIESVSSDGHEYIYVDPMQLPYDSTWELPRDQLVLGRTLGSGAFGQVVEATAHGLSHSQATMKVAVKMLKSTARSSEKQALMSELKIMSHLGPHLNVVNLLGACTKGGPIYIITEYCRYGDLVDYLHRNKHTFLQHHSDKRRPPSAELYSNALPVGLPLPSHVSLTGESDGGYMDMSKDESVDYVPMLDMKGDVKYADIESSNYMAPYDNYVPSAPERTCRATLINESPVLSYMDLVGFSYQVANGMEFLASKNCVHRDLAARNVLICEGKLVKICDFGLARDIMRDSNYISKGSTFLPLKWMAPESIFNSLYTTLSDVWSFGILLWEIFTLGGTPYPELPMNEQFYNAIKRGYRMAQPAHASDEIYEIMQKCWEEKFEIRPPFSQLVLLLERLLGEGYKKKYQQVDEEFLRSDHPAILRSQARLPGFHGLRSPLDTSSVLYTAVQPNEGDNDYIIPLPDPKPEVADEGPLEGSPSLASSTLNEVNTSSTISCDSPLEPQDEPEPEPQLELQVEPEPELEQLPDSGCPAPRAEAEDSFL

Mus musculus [10] = assay: Tumor growth inhibition determined after oral administration of 50 mg/kg/day compound against established L2987 human lung carcinoma xenografts implanted subcutaneously in athymic mouse; format: functional; details: read-out: TGI
[11] = biological target: Receptor tyrosine-protein kinase erbB-2 (Homo sapiens, UniProt P04626); assay: Inhibition against human HER2 kinase
[12] = biological target: Insulin-like growth factor 1 receptor (Homo sapiens, UniProt P08069); assay: Inhibition of human insulin-like growth factor I receptor
Insulin-like growth factor 1 receptor, sequence (P08069 31-736 limits assumed): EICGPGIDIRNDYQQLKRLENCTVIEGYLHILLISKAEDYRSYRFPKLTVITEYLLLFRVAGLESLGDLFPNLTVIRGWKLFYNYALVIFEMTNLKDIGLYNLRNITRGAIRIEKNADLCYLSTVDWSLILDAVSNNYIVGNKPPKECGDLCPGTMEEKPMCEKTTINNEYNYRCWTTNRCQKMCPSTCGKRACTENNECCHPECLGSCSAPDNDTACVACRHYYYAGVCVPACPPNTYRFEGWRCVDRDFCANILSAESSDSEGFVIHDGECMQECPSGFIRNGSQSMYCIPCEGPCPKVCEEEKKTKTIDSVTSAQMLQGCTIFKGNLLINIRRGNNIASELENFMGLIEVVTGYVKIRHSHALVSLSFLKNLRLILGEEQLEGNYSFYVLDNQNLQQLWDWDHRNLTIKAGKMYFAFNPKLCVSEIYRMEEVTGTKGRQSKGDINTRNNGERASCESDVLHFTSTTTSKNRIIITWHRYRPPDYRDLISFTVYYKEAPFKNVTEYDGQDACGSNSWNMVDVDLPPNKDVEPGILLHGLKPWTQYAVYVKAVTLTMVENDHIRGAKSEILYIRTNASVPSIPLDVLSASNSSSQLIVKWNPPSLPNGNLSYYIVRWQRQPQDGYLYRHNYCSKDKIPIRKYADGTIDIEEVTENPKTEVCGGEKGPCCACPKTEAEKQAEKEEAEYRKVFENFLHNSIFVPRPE
Insulin-like growth factor 1 receptor, sequence (P08069 741-1367 limits assumed): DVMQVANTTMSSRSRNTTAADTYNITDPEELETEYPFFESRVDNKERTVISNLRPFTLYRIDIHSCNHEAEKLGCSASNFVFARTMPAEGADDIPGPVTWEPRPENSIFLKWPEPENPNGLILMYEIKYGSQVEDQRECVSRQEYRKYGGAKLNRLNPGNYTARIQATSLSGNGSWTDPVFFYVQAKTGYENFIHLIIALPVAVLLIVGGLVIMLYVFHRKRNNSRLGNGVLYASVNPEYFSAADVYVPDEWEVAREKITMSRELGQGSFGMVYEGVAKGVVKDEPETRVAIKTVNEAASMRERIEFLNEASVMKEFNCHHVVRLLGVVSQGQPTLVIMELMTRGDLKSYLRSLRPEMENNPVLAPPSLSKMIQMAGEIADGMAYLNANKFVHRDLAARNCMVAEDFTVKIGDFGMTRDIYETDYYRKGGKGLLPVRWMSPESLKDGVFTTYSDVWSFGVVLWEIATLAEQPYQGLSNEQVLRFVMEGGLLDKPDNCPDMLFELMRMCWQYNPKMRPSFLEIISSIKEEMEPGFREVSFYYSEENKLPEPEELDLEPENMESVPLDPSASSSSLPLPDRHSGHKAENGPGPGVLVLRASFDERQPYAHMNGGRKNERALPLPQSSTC

Mus musculus [13] = assay: Tumor growth inhibition determined after oral administration of […] mg/kg/day compound against established L2987 human lung carcinoma xenografts implanted subcutaneously in athymic mouse; format: functional; details: read-out: TGI
Mus musculus [14] = assay: Tumor growth inhibition determined after oral administration of 100 mg/kg/day compound against established L2987 human lung carcinoma xenografts implanted subcutaneously in athymic mouse; format: functional; details: read-out: TGI
Mus musculus [15] = assay: Tumor growth inhibition determined after oral administration of 60 mg/kg/day compound against established L2987 human lung carcinoma xenografts implanted subcutaneously in athymic mouse; format: functional; details: read-out: TGI
[16] = biological target: Tyrosine-protein kinase Lck (Homo sapiens, UniProt P06239); assay: Inhibition of human p56 lck tyrosine kinase

Row | Compound | IC50 [1] [nM] | IC50 [2] [nM] | IC50 [3] [nM] | IC50 [4] [nM] | further results
1 | CONC(=O)c1cc(Nc2ncnn3cc(-c4nc(C)no4)c(C(C)C)c23)c(F)cc1F | 7.6 | 6.8 | 49 | 110 | 
2 | CONC(=O)c1cc(Nc2ncnn3cc(-c4nnc(N(C)C)o4)c(C(C)C)c23)c(F)cc1F | 7.3 | 6.7 | 11 | 18 | 
3 | CONC(=O)c1cc(Nc2ncnn3cc(-c4nnc(CC5CC5)o4)c(C(C)C)c23)c(F)cc1F | 9.2 | 4 | 17 | 27 | 
4 | CCOC(=O)c1cn2ncnc(Nc3ccc(F)c(C(=O)NOC)c3)c2c1C(C)C |  |  | 79 |  | 
5 | CONC(=O)c1cc(Nc2ncnn3cc(-c4nnc(C5CC5)o4)c(C(C)C)c23)c(F)cc1F | 5.3 | 3.6 | 11 | 14 | 
6 | CCOC(=O)c1cn2ncnc(Nc3cc(C(=O)NOCC4CC4)c(F)cc3F)c2c1C(C)C |  |  | 190 |  | 
7 | CCOC(=O)c1cn2ncnc(Nc3cc(C(=O)NOCC(C)C)c(F)cc3F)c2c1C(C)C |  |  | 1200 |  | 
8 | CONC(=O)c1cc(Nc2ncnn3cc(-c4nnc(CC(F)(F)F)o4)c(C(C)C)c23)c(F)cc1F | 44 | 25 | 29 | 68 | 
9 | CONC(=O)c1cc(Nc2ncnn3cc(NC(=O)OCCCS(C)(=O)=O)c(C(C)C)c23)c(F)cc1F |  |  |  | 58 | concentration at 1 h [5]: 7.9 µM; IC50 [6]: > 50000 nM; concentration at 4 h [7]: 13.8 µM; IC50 [8]: > 50000 nM; IC50 [9]: > 2000 nM; IC50 [11]: 5300 nM; IC50 [16]: 5100 nM; IC50 [12]: > 25000 nM

Now from value to compound, other results behind:

Row | IC50 [1] [nM] | IC50 [2] [nM] | IC50 [3] [nM] | IC50 [4] [nM] | Compound | further results
10 |  |  | 130 |  | CCOC(=O)c1cn2ncnc(Nc3cccc(C(=O)NOC)c3)c2c1C(C)C | 
11 |  | 62 | 79 |  | CONC(=O)c1cc(Nc2ncnn3cc(NC(=O)OCCCN4CCCCC4)c(C(C)C)c23)c(F)cc1F | 
12 |  |  | 120 |  | CCOC(=O)c1cn2ncnc(Nc3ccc(C)c(C(=O)NOC)c3)c2c1C(C)C | 
13 | 21 |  |  | 100 | CONC(=O)c1cc(Nc2ncnn3cc(-c4nnc(C(F)F)o4)c(C(C)C)c23)c(F)cc1F | concentration at 1 h [5]: 187 µM; IC50 [6]: > 50000 nM; concentration at 4 h [7]: 155 µM; IC50 [8]: > 50000 nM; IC50 [9]: > 2000 nM; inhibition in vivo at 50 mg/kg/day (Mus musculus [10]): 30%; IC50 [11]: > 10000 nM; IC50 [12]: > 25000 nM; inhibition in vivo at 150 mg/kg/day (Mus musculus [13]): 88.4%; inhibition in vivo at 100 mg/kg/day (Mus musculus [14]): 46.5%
14 | 4.6 | 2.1 | 16 | 16 | CONC(=O)c1cc(Nc2ncnn3cc(-c4nnc(CS(C)(=O)=O)o4)c(C(C)C)c23)c(F)cc1F | concentration at 1 h [5]: 288 µM; concentration at 4 h [7]: 232 µM; inhibition in vivo at 60 mg/kg/day (Mus musculus [15]): 42.6%; inhibition in vivo at 100 mg/kg/day (Mus musculus [14]): 74.9%
15 | 6.6 | 2.1 | 23 | 33 | CONC(=O)c1cc(Nc2ncnn3cc(-c4nnc(CC(C)C)o4)c(C(C)C)c23)c(F)cc1F | 
16 | 4.7 | 1.8 | 17 | 28 | CCc1nnc(-c2cn3ncnc(Nc4cc(C(=O)NOC)c(F)cc4F)c3c2C(C)C)o1 | 
17 |  |  | 270 |  | CCOC(=O)c1cn2ncnc(Nc3ccc(Br)c(C(=O)NOC)c3)c2c1C(C)C | 
18 |  |  | 40 |  | CCONC(=O)c1cc(Nc2ncnn3cc(C(=O)OCC)c(C(C)C)c23)c(F)cc1F | 
